# Data: the supplement of paper PMC10307832
# Legend:
# Test in all cases: relative viability (nuclei count vs DMSO), 5 days (fraction); higher = more cells survive
# ChaGo-K-1 = test system: ChaGo-K-1
# How it was run: (§1)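 Five library-drug doses in √10 steps were combined with a fixed anchor-drug dose, or a single drug was given alone, by pin tool to lung cancer cell lines in 1536-well plates the day after seeding. Nuclei were stained and counted after 5 days. Relative viability is the nuclei count in treated wells over that in vehicle wells, taken as the median of duplicate plates.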
# EMC-BAC-2 = test system: EMC-BAC-2
# How it was run: as §1
# EPLC-272H = test system: EPLC-272H
# How it was run: as §1
# HCC-366 = test system: HCC-366
# How it was run: as §1
# HCC-44 = test system: HCC-44
# How it was run: as §1
# HCC-78 = test system: HCC-78
# How it was run: as §1
# HCC-827 = test system: HCC-827
# How it was run: as §1
# LCLC-103H = test system: LCLC-103H
# How it was run: as §1
# LK-2 = test system: LK-2
# How it was run: as §1
# LOU-NH91 = test system: LOU-NH91
# How it was run: as §1
# LU99A = test system: LU99A
# How it was run: as §1
# LXF-289 = test system: LXF-289
# How it was run: as §1
# NCI-H1563 = test system: NCI-H1563
# How it was run: as §1
# NCI-H1666 = test system: NCI-H1666
# How it was run: as §1
# NCI-H1975 = test system: NCI-H1975
# How it was run: as §1
# NCI-H2085 = test system: NCI-H2085
# How it was run: as §1
# NCI-H2126 = test system: NCI-H2126
# How it was run: as §1
# NCI-H23 = test system: NCI-H23
# How it was run: as §1
# NCI-H2405 = test system: NCI-H2405
# How it was run: as §1
# NCI-H3122 = test system: NCI-H3122
# How it was run: as §1
# RERF-LC-KJ = test system: RERF-LC-KJ
# How it was run: as §1
# SK-LU-1 = test system: SK-LU-1
# How it was run: as §1
# SW 1573 = test system: SW 1573
# How it was run: as §1
structure (smiles),measurement,setting,value
CC(C)Oc1cc(Nc2nc(N[C@@H](C)c3ccc(F)cn3)ncc2Cl)n[nH]1 [AZ23] + C[C@@H](Oc1cc(-c2cnn(C3CCNCC3)c2)cnc1N)c1c(Cl)ccc(F)c1Cl [Crizotinib] (partner 1 µM),relative viability,ChaGo-K-1; first compound 0.01 µM,1.37
same,relative viability,ChaGo-K-1; first compound 0.03162 µM,1.08
same,relative viability,ChaGo-K-1; first compound 0.3162 µM,1.24
same,relative viability,EMC-BAC-2; first compound 0.01 µM,0.804
same,relative viability,EMC-BAC-2; first compound 0.03162 µM,0.817
same,relative viability,EMC-BAC-2; first compound 0.3162 µM,0.777
same,relative viability,EPLC-272H; first compound 0.01 µM,1.19
same,relative viability,EPLC-272H; first compound 0.03162 µM,1.19
same,relative viability,HCC-366; first compound 0.01 µM,0.688
same,relative viability,HCC-366; first compound 0.03162 µM,1.05
same,relative viability,HCC-366; first compound 0.3162 µM,0.587
same,relative viability,HCC-44; first compound 0.01 µM,0.934
same,relative viability,HCC-44; first compound 0.03162 µM,0.952
same,relative viability,HCC-44; first compound 0.3162 µM,0.826
same,relative viability,HCC-78; first compound 0.01 µM,0.318
same,relative viability,HCC-78; first compound 0.03162 µM,0.39
same,relative viability,HCC-78; first compound 0.3162 µM,0.336
same,relative viability,HCC-827; first compound 0.01 µM,0.993
same,relative viability,HCC-827; first compound 0.03162 µM,1.03
same,relative viability,HCC-827; first compound 0.3162 µM,0.881
same,relative viability,LCLC-103H; first compound 0.01 µM,1.13
same,relative viability,LCLC-103H; first compound 0.03162 µM,1.13
same,relative viability,LCLC-103H; first compound 0.3162 µM,1.13
same,relative viability,LK-2; first compound 0.03162 µM,0.223
same,relative viability,LK-2; first compound 0.3162 µM,0.216
same,relative viability,LOU-NH91; first compound 0.01 µM,0.719
same,relative viability,LOU-NH91; first compound 0.03162 µM,0.727
same,relative viability,LOU-NH91; first compound 0.3162 µM,0.771
same,relative viability,LU99A; first compound 0.01 µM,0.617
same,relative viability,LU99A; first compound 0.03162 µM,0.563
same,relative viability,LU99A; first compound 0.3162 µM,0.6
same,relative viability,LXF-289; first compound 0.01 µM,0.862
same,relative viability,LXF-289; first compound 0.03162 µM,0.859
same,relative viability,LXF-289; first compound 0.3162 µM,0.79
same,relative viability,NCI-H1563; first compound 0.01 µM,0.837
same,relative viability,NCI-H1563; first compound 0.03162 µM,0.912
same,relative viability,NCI-H1563; first compound 0.3162 µM,0.865
same,relative viability,NCI-H1666; first compound 0.01 µM,1.03
same,relative viability,NCI-H1666; first compound 0.03162 µM,0.978
same,relative viability,NCI-H1666; first compound 0.3162 µM,1.02
same,relative viability,NCI-H1975; first compound 0.01 µM,1.44
same,relative viability,NCI-H1975; first compound 0.03162 µM,0.953
same,relative viability,NCI-H1975; first compound 0.3162 µM,1.09
same,relative viability,NCI-H2085; first compound 0.01 µM,1.03
same,relative viability,NCI-H2085; first compound 0.03162 µM,0.94
same,relative viability,NCI-H2085; first compound 0.3162 µM,0.838
same,relative viability,NCI-H2126; first compound 0.01 µM,1.24
same,relative viability,NCI-H2126; first compound 0.03162 µM,1.11
same,relative viability,NCI-H2126; first compound 0.3162 µM,1.05
same,relative viability,NCI-H23; first compound 0.03162 µM,0.617
same,relative viability,NCI-H23; first compound 0.3162 µM,0.539
same,relative viability,NCI-H2405; first compound 0.01 µM,0.825
same,relative viability,NCI-H2405; first compound 0.03162 µM,0.904
same,relative viability,NCI-H2405; first compound 0.3162 µM,0.854
same,relative viability,NCI-H3122; first compound 0.01 µM,0.28
same,relative viability,NCI-H3122; first compound 0.03162 µM,0.262
same,relative viability,NCI-H3122; first compound 0.3162 µM,0.305
same,relative viability,RERF-LC-KJ; first compound 0.01 µM,1
same,relative viability,RERF-LC-KJ; first compound 0.03162 µM,1
same,relative viability,RERF-LC-KJ; first compound 0.3162 µM,0.915
same,relative viability,SK-LU-1; first compound 0.01 µM,0.94
same,relative viability,SK-LU-1; first compound 0.03162 µM,1.05
same,relative viability,SK-LU-1; first compound 0.3162 µM,0.978
same,relative viability,SW 1573; first compound 0.01 µM,0.915
same,relative viability,SW 1573; first compound 0.03162 µM,0.997
same,relative viability,SW 1573; first compound 0.3162 µM,0.727
